We go through 27 compounds from patent US8471005B2 (Cephalon, Inc., priority 2008, dated 2013).

Experiment [1] concerns the target T1, ALK (Homo sapiens, UniProt Q9UM73).
T1 construct: host or cells: baculovirus expression system
As to the kind of experiment: ALK Kinase Assay (ELISA/TRF, PLC-γ substrate). It counts as biochemical. As to conditions: read-out: ALK Potency. The gist of the method:
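Time-resolved fluorescence ELISA using Eu-N1 PT66 antibody to detect phosphorylated PLC-γ (coated at 10 μg/mL). Enzyme at 30 ng/ml ALK; 15 min incubation, 37° C.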
(ELISA stands for enzyme-linked immunosorbent assay.)

Experiment [2] concerns the target T2, JAK2 (Homo sapiens, UniProt O60674).
T2 construct: host or cells: baculovirus expression system
As to the kind of experiment: Recombinant Human JAK2 Kinase Assay (TRF). The experiment is classed as biochemical. The note with it: read-out: JAK2 Potency. The gist of the method:
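Europium-labelled PY100 antibody reported tyrosine phosphorylation of a Neutravidin-captured biotinyl 15-mer peptide by JAK2 (baculovirus-expressed, 15 ng/ml). Conditions: 20 mM HEPES pH 7.2, 0.2 μM ATP, 1 mM MnCl2, 0.1% BSA, DMSO 2.5% final, 20 min at room temperature.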

Setting [3] is: ALK kinase inhibition, 1 μM ATP.
[4] abbreviates: JAK2 kinase inhibition, 0.2 μM ATP.

Like-named read-outs stand apart in the source and are kept apart here. A value given as a limit tells only on which side of the number the result lay.

T1 sequence (Q9UM73 19-1620): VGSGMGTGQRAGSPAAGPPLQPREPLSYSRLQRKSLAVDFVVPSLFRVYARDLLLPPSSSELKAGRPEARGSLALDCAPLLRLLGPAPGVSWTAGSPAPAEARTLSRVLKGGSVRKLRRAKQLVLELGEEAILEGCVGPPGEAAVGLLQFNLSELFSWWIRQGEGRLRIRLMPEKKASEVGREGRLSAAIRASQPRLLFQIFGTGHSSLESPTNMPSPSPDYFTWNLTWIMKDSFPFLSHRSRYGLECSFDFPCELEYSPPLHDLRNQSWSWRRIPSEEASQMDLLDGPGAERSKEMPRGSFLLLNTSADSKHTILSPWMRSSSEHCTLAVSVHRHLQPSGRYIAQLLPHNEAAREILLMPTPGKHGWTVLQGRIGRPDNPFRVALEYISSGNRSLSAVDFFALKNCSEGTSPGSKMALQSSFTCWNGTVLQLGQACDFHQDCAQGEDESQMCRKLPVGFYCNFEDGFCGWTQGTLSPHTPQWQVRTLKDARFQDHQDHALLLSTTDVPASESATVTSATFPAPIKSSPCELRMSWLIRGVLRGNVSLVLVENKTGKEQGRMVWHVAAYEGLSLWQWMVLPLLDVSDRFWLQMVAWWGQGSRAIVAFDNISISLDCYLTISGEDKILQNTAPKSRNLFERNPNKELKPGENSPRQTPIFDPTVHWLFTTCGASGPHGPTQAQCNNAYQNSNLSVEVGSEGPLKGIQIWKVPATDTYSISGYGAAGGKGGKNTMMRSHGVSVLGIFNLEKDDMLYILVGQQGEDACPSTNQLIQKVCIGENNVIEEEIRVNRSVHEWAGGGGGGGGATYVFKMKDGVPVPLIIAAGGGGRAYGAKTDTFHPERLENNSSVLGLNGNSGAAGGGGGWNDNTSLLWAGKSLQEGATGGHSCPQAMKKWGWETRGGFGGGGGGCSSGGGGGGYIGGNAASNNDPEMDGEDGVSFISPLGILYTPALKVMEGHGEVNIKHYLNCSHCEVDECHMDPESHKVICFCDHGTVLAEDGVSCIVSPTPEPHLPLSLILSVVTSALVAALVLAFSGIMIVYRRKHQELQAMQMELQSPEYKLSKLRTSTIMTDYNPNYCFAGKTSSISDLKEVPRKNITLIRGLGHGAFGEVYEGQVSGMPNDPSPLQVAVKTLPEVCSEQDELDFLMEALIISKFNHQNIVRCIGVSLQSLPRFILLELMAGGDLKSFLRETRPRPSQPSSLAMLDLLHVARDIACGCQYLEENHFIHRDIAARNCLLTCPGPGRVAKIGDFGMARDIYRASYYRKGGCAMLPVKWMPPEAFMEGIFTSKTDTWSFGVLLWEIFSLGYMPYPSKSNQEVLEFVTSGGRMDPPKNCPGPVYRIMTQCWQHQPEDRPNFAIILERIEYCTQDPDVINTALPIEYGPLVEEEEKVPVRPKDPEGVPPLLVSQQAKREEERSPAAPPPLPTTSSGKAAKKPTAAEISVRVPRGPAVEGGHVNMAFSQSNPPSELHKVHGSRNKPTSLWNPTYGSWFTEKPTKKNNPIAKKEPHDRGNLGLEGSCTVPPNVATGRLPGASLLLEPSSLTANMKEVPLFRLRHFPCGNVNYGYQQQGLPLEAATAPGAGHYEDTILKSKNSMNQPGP
T2 sequence (O60674 whole entry): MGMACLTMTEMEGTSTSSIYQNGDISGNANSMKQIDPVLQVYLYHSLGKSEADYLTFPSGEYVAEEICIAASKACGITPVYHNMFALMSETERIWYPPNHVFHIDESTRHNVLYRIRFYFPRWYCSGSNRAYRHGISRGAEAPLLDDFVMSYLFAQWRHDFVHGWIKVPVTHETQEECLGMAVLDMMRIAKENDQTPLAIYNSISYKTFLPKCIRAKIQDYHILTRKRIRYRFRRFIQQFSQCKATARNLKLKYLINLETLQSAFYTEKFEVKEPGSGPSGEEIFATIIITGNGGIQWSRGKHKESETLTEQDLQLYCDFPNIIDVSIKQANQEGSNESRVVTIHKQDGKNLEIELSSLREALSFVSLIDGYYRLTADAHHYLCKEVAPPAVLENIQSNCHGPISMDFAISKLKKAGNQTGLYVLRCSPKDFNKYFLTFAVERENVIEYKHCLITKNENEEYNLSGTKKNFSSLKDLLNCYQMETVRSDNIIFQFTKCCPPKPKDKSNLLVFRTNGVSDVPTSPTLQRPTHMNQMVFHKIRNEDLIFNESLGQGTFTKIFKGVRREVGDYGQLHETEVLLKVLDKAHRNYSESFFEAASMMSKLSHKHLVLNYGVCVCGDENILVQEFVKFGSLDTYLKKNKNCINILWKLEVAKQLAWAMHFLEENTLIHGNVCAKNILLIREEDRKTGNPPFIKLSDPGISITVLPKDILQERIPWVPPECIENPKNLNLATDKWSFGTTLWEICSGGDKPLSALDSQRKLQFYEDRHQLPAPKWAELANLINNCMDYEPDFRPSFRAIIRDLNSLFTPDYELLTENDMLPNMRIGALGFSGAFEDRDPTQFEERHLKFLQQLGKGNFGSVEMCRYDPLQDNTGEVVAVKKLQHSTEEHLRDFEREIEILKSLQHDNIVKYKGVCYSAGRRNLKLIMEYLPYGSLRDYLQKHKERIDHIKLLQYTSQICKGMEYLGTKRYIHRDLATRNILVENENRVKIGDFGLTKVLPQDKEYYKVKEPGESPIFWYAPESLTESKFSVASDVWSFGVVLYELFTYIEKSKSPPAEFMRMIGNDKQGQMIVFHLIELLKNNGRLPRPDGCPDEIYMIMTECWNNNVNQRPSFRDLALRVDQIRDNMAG

Regarding `COc1ccc(-c2ccc3cnc(Nc4ccc5c(c4)CN(CC(N)=O)C5)nn23)cn1` [Example 926, 2-{5-[7-(6-Methoxy-pyridin-3-yl)-pyrrolo[2,1-f][1,2,4]triazin-2-ylamino]-1,3-dihydro-isoindol-2-yl}-acetamide], the IC50 is 1 to 10 µM in experiment [1] (setting [3]) and less than 0.1 µM in experiment [2] (setting [4]).
On to `COc1cc(N2CCC(N3CCOCC3)CC2)ccc1Nc1ncc2ccc(-c3ccccc3N(C)S(C)(=O)=O)n2n1` [Example 1453, N-(2-{2-[2-Methoxy-4-(4-morpholin-4-yl-piperidin-1-yl)-phenylamino]-pyrrolo[2,1-f][1,2,4]triazin-7-yl}-phenyl)-N-methyl-methanesulfonamide], for which the IC50 in experiment [1] (ALK Kinase Inhibition) was less than 0.1 µM; in experiment [2] (JAK2 Kinase Inhibition), 0.1 to 1 µM.
For `COc1ccc(Cl)cc1-c1ccc2cnc(Nc3ccc(N4CCOCC4)c(F)c3)nn12` [Example 188, [7-(5-Chloro-2-methoxy-phenyl)-pyrrolo[2,1-f][1,2,4]triazin-2-yl]-(3-fluoro-4-morpholin-4-yl-phenyl)-amine] the same measures were 1 to 10 µM and less than 0.1 µM.
Take `COc1ccc(Cl)cc1-c1ccc2cnc(Nc3cccc(N4CCN(CC(C)(C)O)CC4)c3)nn12` [Example 219, 1-(4-{3-[7-(5-Chloro-2-methoxy-phenyl)-pyrrolo[2,1-f][1,2,4]triazin-2-ylamino]-phenyl}-piperazin-1-yl)-2-methyl-propan-2-ol]: the IC50 in experiment [1] (ALK Kinase Inhibition) and in experiment [2] (JAK2 Kinase Inhibition) was less than 0.1 µM each time.
With `COc1cc(N2CCCN(C3CCN(C)CC3)CC2)ccc1Nc1ncc2ccc(-c3ccccc3OC)n2n1` [Example 789, {2-Methoxy-4-[4-(1-methyl-piperidin-4-yl)-[1,4]diazepan-1-yl]-phenyl}-[7-(2-methoxy-phenyl)-pyrrolo[2,1-f][1,2,4]triazin-2-yl]-amine], the IC50 in experiment [1] (setting [3]) is less than 0.1 µM; in experiment [2] (setting [4]), 0.1 to 1 µM.
For `O=S(=O)(CC1CC1)c1cccc(-c2ccc3cnc(Nc4ccc5nc(C(F)(F)F)[nH]c5c4)nn23)c1` [Example 1318, [7-(3-Cyclopropylmethanesulfonyl-phenyl)-pyrrolo[2,1-f][1,2,4]triazin-2-yl]-(2-trifluoromethyl-3H-benzimidazol-5-yl)-amine] the same measures were more than 10 µM and less than 0.1 µM.
`CNS(=O)(=O)c1cccc(-c2ccc3cnc(Nc4ccc(N5CCOCC5)cc4)nn23)c1` [Example 357, N-Methyl-3-[2-(4-morpholin-4-yl-phenylamino)-pyrrolo[2,1-f][1,2,4]triazin-7-yl]-benzenesulfonamide]: the IC50 in experiment [1] (ALK Kinase Inhibition) was 0.1 to 1 µM; in experiment [2] (JAK2 Kinase Inhibition) it was less than 0.1 µM.
As for `CN1CCN(CCOc2ccc(Nc3ncc4ccc(-c5cccnc5)n4n3)cc2)CC1` [Example 119, {4-[2-(4-Methyl-piperazin-1-yl)-ethoxy]-phenyl}-(7-pyridin-3-yl-pyrrolo[2,1-f][1,2,4]triazin-2-yl)-amine], the IC50 in experiment [1] (ALK Kinase Inhibition) was 0.1 to 1 µM; in experiment [2] (JAK2 Kinase Inhibition), less than 0.1 µM.
For `CN(c1ccccc1-c1ccc2cnc(Nc3ccc4c(cnn4C)c3)nn12)S(C)(=O)=O` [Example 1339, N-Methyl-N-{2-[2-(1-methyl-1H-indazol-5-ylamino)-pyrrolo[2,1-f][1,2,4]triazin-7-yl]-phenyl}-methanesulfonamide], the values for the IC50 in experiment [1] (setting [3]) and in experiment [2] (setting [4]) were 0.1 to 1 µM and less than 0.1 µM, respectively.
For `CC(C)(C)NS(=O)(=O)c1cccc(-c2ccc3cnc(Nc4ccc(-c5cccnc5)cc4)nn23)c1` [Example 1085, N-tert-Butyl-3-[2-(4-pyridin-3-yl-phenylamino)-pyrrolo[2,1-f][1,2,4]triazin-7-yl]-benzenesulfonamide] the same measures were more than 10 µM and less than 0.1 µM.
For `CN1C(=O)COc2cc(Nc3ncc4ccc(-c5cccc(S(=O)(=O)NC(C)(C)C)c5)n4n3)ccc21` [Example 648, N-tert-Butyl-3-[2-(4-methyl-3-oxo-3,4-dihydro-2H-benzo[1,4]oxazin-7-ylamino)-pyrrolo[2,1-f][1,2,4]triazin-7-yl]-benzenesulfonamide] the same measures were 0.1 to 1 µM and less than 0.1 µM.
As for `CCN1CCOC(c2ccc(Nc3ncc4ccc(-c5ccccc5OC)n4n3)cc2)C1` (stereo not drawn) [Example 252, [4-(4-Ethyl-morpholin-2-yl)-phenyl]-[7-(2-methoxy-phenyl)-pyrrolo[2,1-f][1,2,4]triazin-2-yl]-amine], the IC50 in experiment [1] (ALK Kinase Inhibition) and in experiment [2] (JAK2 Kinase Inhibition) was less than 0.1 µM throughout.
With `COc1cc(N2CCC(N3CCOCC3)CC2)ccc1Nc1ncc2ccc(-c3cccc(OC)c3OC)n2n1` [Example 1465, [7-(2,3-Dimethoxy-phenyl)-pyrrolo[2,1-f][1,2,4]triazin-2-yl]-[2-methoxy-4-(4-morpholin-4-yl-piperidin-1-yl)-phenyl]-amine], the IC50 in experiment [1] (ALK Kinase Inhibition) and in experiment [2] (JAK2 Kinase Inhibition) was less than 0.1 µM in each case.
On to `CC(C)(C)NS(=O)(=O)c1cccc(-c2ccc3cnc(Nc4ccc5nc(C(C)(C)C)[nH]c5c4)nn23)c1` [Example 1330, N-tert-Butyl-3-[2-(2-tert-butyl-3H-benzimidazol-5-ylamino)-pyrrolo[2,1-f][1,2,4]triazin-7-yl]-benzenesulfonamide], for which the IC50 in experiment [1] (setting [3]) is 1 to 10 µM; in experiment [2] (setting [4]) it was less than 0.1 µM.
With `COc1ccc(Nc2ncc3ccc(-c4cccc(NS(C)(=O)=O)c4)n3n2)cc1N1CCOCC1` [Example 395, N-{3-[2-(4-Methoxy-3-morpholin-4-yl-phenylamino)-pyrrolo[2,1-f][1,2,4]triazin-7-yl]-phenyl}-methanesulfonamide], the IC50 in experiment [1] (ALK Kinase Inhibition) was 0.1 to 1 µM; in experiment [2] (JAK2 Kinase Inhibition), less than 0.1 µM.
On to `COc1ccc(-c2ccc3cnc(Nc4ccc(CN5CCS(=O)(=O)CC5)cc4)nn23)cn1` [Example 1051, [4-(1,1-Dioxo-1$1(6)-thiomorpholin-4-ylmethyl)-phenyl]-[7-(6-methoxy-pyridin-3-yl)-pyrrolo[2,1-f][1,2,4]triazin-2-yl]-amine], for which the IC50 in experiment [1] (setting [3]) is more than 10 µM; in experiment [2] (setting [4]) it was less than 0.1 µM.
For `CN1CCN(C)C(c2cccc(Nc3ncc4ccc(-c5ccccc5N(C)S(C)(=O)=O)n4n3)c2)C1=O` (stereo not drawn) [Example 1083, N-(2-{2-[3-(1,4-Dimethyl-3-oxo-piperazin-2-yl)-phenylamino]-pyrrolo[2,1-f][1,2,4]triazin-7-yl}-phenyl)-N-methyl-methanesulfonamide] the same measures were 1 to 10 µM and less than 0.1 µM.
On to `CN(c1ccccc1-c1ccc2cnc(Nc3ccc4c(c3)CCCC(=O)N4)nn12)S(C)(=O)=O` [Example 623, N-Methyl-N-{2-[2-(2-oxo-2,3,4,5-tetrahydro-1H-benzo[b]azepin-7-ylamino)-pyrrolo[2,1-f][1,2,4]triazin-7-yl]-phenyl}-methanesulfonamide], for which the IC50 in experiment [1] (setting [3]) and in experiment [2] (setting [4]) was less than 0.1 µM each time.
Consider `O=C(c1ccccc1)c1ccc2cnc(Nc3ccc(N4CCOCC4)cc3)nn12` [Example 72, [2-(4-Morpholin-4-yl-phenylamino)-pyrrolo[2,1-f][1,2,4]triazin-7-yl]-phenyl-methanone], for which the IC50 is 1 to 10 µM in experiment [1] (ALK Kinase Inhibition) and less than 0.1 µM in experiment [2] (JAK2 Kinase Inhibition).
For `CS(=O)(=O)c1cccc(-c2ccc3cnc(Nc4ccc(C5CCN(CC(N)=O)CC5)cc4)nn23)c1` [Example 1434, 2-(4-{4-[7-(3-Methanesulfonyl-phenyl)-pyrrolo[2,1-f][1,2,4]triazin-2-ylamino]-phenyl}-piperidin-1-yl)-acetamide] the same measures were 0.1 to 1 µM and less than 0.1 µM.
For the compound `Cc1ccncc1-c1ccc2cnc(Nc3ccc(N4CCN(C)CC4)cc3)nn12` [Example 1039, [4-(4-Methyl-piperazin-1-yl)-phenyl]-[7-(4-methyl-pyridin-3-yl)-pyrrolo[2,1-f][1,2,4]triazin-2-yl]-amine], the IC50 is 0.1 to 1 µM in experiment [1] (setting [3]) and less than 0.1 µM in experiment [2] (setting [4]).
Consider `c1cncc(-c2ccc3cnc(Nc4ccc(N5CCOCC5)cc4)nn23)c1` [Example 11, (4-Morpholin-4-yl-phenyl)-(7-pyridin-3-yl-pyrrolo[2,1-f][1,2,4]triazin-2-yl)-amine], for which the values for the IC50 in experiment [1] (ALK Kinase Inhibition) and in experiment [2] (JAK2 Kinase Inhibition) were 1 to 10 µM and less than 0.1 µM, respectively.
As for `COc1ccccc1-c1c(C)c(C)c2cnc(Nc3ccc(N4CCN(C)CC4)cc3)nn12` [Example 1107], the IC50 in experiment [1] (setting [3]) and in experiment [2] (setting [4]) was less than 0.1 µM each time.
Turning to `c1ccc(-c2ccc3cnc(NCc4cccnc4)nn23)cc1` [Example 12, (7-Phenyl-pyrrolo[2,1-f][1,2,4]triazin-2-yl)-pyridin-3-ylmethyl-amine], the IC50 in experiment [1] (ALK Kinase Inhibition) and in experiment [2] (JAK2 Kinase Inhibition) was 1 to 10 µM in each case.
On to `C=Cc1cc(-c2ccc(S(C)(=O)=O)cc2)n2nc(Nc3ccc(N4CCN(C)CC4)cc3)ncc12` [Example 104, [7-(4-Methanesulfonyl-phenyl)-5-vinyl-pyrrolo[2,1-f][1,2,4]triazin-2-yl]-[4-(4-methyl-piperazin-1-yl)-phenyl]-amine], for which the IC50 in experiment [1] (ALK Kinase Inhibition) is 1 to 10 µM; in experiment [2] (JAK2 Kinase Inhibition), less than 0.1 µM.
With `CN1CCN(c2ccc(Nc3ncc4cc(-c5ccccc5OCC#N)cn4n3)cc2)CC1` [Example 1155, (2-{2-[4-(4-Methyl-piperazin-1-yl)-phenylamino]-pyrrolo[2,1-f][1,2,4]triazin-6-yl}-phenoxy)-acetonitrile], the IC50 in experiment [1] (setting [3]) was in the range of 1 to 10 µM; in experiment [2] (setting [4]) it was 0.1 to 1 µM.
`CC(=O)Nc1cc(Nc2ncc3ccc(-c4cccc(Cl)c4)n3n2)ccc1C(C)(C)C` [Example 307, N-{2-tert-Butyl-5-[7-(3-chloro-phenyl)-pyrrolo[2,1-f][1,2,4]triazin-2-ylamino]-phenyl}-acetamide]: the IC50 in experiment [1] (ALK Kinase Inhibition) was more than 10 µM; in experiment [2] (JAK2 Kinase Inhibition), less than 0.1 µM.
